Data from the supplement of paper PMC4862054.

Tests used:
Test in all cases: normalised viability (% of control), CellTiter-Blue; higher = more viable cells (about 100 = DMSO control)
[1] = tested on: HCC1599; conditions: incubation time: 72 h
In short: (§1)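 Vehicle (100) and a positive kill control (0) anchored the normalisation of each plate, and Z'-factor was used for quality control. Breast cancer cell lines in 20 µl suspension were incubated 72 h over compound in 5 µl medium in 384-well plates, followed by CellTiter-Blue at 560/590 nm. The value is normalised viability at a single listed concentration of the series.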

[2] = tested on: Hs578T; conditions: incubation time: 72 h
In short: as §1

[3] = tested on: SK-BR-3; conditions: incubation time: 72 h
In short: as §1

[4] = tested on: MFM-223; conditions: incubation time: 72 h
In short: as §1

[5] = tested on: DU-4475; conditions: incubation time: 72 h
In short: as §1

[6] = tested on: CAL-51; conditions: incubation time: 72 h
In short: as §1

[7] = tested on: MDA-MB-453; conditions: incubation time: 72 h
In short: as §1

[8] = tested on: MDA-MB-468; conditions: incubation time: 72 h
In short: as §1

[9] = tested on: HCC1937; conditions: incubation time: 72 h
In short: as §1

[10] = tested on: MDA-MB-231; conditions: incubation time: 72 h
In short: as §1

[11] = tested on: MDA-MB-436; conditions: incubation time: 72 h
In short: as §1

[12] = tested on: CAL-148; conditions: incubation time: 72 h
In short: as §1

[13] = tested on: HCC1143; conditions: incubation time: 72 h
In short: as §1

[14] = tested on: CAL-120; conditions: incubation time: 72 h
In short: as §1

[15] = tested on: HDQ-P1; conditions: incubation time: 72 h
In short: as §1

[16] = tested on: BT-474; conditions: incubation time: 72 h
In short: as §1

[17] = tested on: BT-549; conditions: incubation time: 72 h
In short: as §1

[18] = tested on: CAL-85-1; conditions: incubation time: 72 h
In short: as §1

[19] = tested on: Hs578T; conditions: 100 nM; incubation time: 72 h
Protocol: (§2)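 DSRT, CellTiter-Blue viability, 72 h incubation. Signal is normalised to DMSO and benzethonium chloride controls. Value is the normalised response at dose 3.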

[20] = tested on: SK-BR-3; conditions: 100 nM; incubation time: 72 h
Protocol: as §2

[21] = tested on: MFM-223; conditions: 100 nM; incubation time: 72 h
Protocol: as §2

[22] = tested on: MDA-MB-453; conditions: 10 nM; incubation time: 72 h
Protocol: as §2

[23] = tested on: MDA-MB-468; conditions: 100 nM; incubation time: 72 h
Protocol: as §2

[24] = tested on: MDA-MB-231; conditions: 100 nM; incubation time: 72 h
Protocol: as §2

[25] = tested on: MDA-MB-436; conditions: 100 nM; incubation time: 72 h
Protocol: as §2

[26] = tested on: HDQ-P1; conditions: 10 nM; incubation time: 72 h
Protocol: as §2

[27] = tested on: BT-474; conditions: 100 nM; incubation time: 72 h
Protocol: as §2

Work on `C[C@@]1(C(=O)Nc2ccc(F)nc2)CCCN1c1nc(Nc2cc(C3CC3)n[nH]2)c2cccn2n1` yielded a normalised viability ([1]; 10 nM) of 92.5%, a normalised viability ([1]; 1000 nM) of 55% and a normalised viability ([1]; 10000 nM) of 54.1%. The normalised viability ([2]; 10 nM) was 114%, the normalised viability ([2]; 1000 nM) was 75.8% and the normalised viability ([2]; 10000 nM) was 38.1%. It also gave a normalised viability ([3]; 10 nM) of 99.1%, a normalised viability ([3]; 1000 nM) of 71% and a normalised viability ([3]; 10000 nM) of 56.4%. The normalised viability ([4]; 10 nM) was 88.5%, the normalised viability ([4]; 1000 nM) was 52.6% and the normalised viability ([4]; 10000 nM) was 25.3%. It also gave a normalised viability ([5]; 3 nM) of 97.3%, a normalised viability ([5]; 30 nM) of 91.7% and a normalised viability ([5]; 100 nM) of 83.8%. It also gave a normalised viability ([6]; 3 nM) of 99%, a normalised viability ([6]; 30 nM) of 97.4% and a normalised viability ([6]; 100 nM) of 84.9%. For the same compound, the normalised viability ([7]; 3 nM) was 100%, the normalised viability ([7]; 30 nM) was 84% and the normalised viability ([7]; 100 nM) was 105%. For the same compound, the normalised viability ([8]; 10 nM) was 115%, the normalised viability ([8]; 1000 nM) was 61% and the normalised viability ([8]; 10000 nM) was 40.7%. It also gave a normalised viability ([9]; 10 nM) of 127%, a normalised viability ([9]; 1000 nM) of 73.2% and a normalised viability ([9]; 10000 nM) of 29.4%. It also gave a normalised viability ([10]; 10 nM) of 90.6%, a normalised viability ([10]; 1000 nM) of 46% and a normalised viability ([10]; 10000 nM) of 31.4%. For the same compound, the normalised viability ([11]; 10 nM) was 122%, the normalised viability ([11]; 1000 nM) was 94.3% and the normalised viability ([11]; 10000 nM) was 33.9%. The normalised viability ([12]; 3 nM) was 88.5%, the normalised viability ([12]; 30 nM) was 99.1% and the normalised viability ([12]; 100 nM) was 95.1%. It also gave a normalised viability ([13]; 10 nM) of 105%, a normalised viability ([13]; 1000 nM) of 64.1% and a normalised viability ([13]; 10000 nM) of 45.6%. For the same compound, the normalised viability ([14]; 10 nM) was 94%, the normalised viability ([14]; 1000 nM) was 63% and the normalised viability ([14]; 10000 nM) was 21.1%. The normalised viability ([15]; 3 nM) was 120%, the normalised viability ([15]; 30 nM) was 82% and the normalised viability ([15]; 100 nM) was 73.5%. The normalised viability ([16]; 10 nM) was 109%, the normalised viability ([16]; 1000 nM) was 87.6% and the normalised viability ([16]; 10000 nM) was 82%. The normalised viability ([17]; 10 nM) was 97.8%, the normalised viability ([17]; 1000 nM) was 77.6% and the normalised viability ([17]; 10000 nM) was 34.4%. For the same compound, the normalised viability ([18]; 3 nM) was 92%, the normalised viability ([18]; 30 nM) was 75% and the normalised viability ([18]; 100 nM) was 87.9%. It also gave a normalised viability [19] of 79.4%, a normalised viability [20] of 92.6% and a normalised viability [21] of 88.2%. The normalised viability [22] was 112%, the normalised viability [23] was 101% and the normalised viability [24] was 93.8%. It also gave a normalised viability [25] of 92.6%, a normalised viability [26] of 89.5% and a normalised viability [27] of 118%.

Compound `COC1=CC(c2cc3ccccc3[nH]2)=N/C1=C\c1[nH]c(C)cc1C` [Obatoclax] has a normalised viability ([1]; 10 nM) of 95.4%, a normalised viability ([1]; 1000 nM) of 64% and a normalised viability ([1]; 10000 nM) of 44.9%. The normalised viability ([2]; 10 nM) was 96.7%, the normalised viability ([2]; 1000 nM) was 27.1% and the normalised viability ([2]; 10000 nM) was 22.1%. The normalised viability ([3]; 10 nM) was 80.2%, the normalised viability ([3]; 1000 nM) was 27.1% and the normalised viability ([3]; 10000 nM) was 21.2%. The normalised viability ([4]; 10 nM) was 72.7%, the normalised viability ([4]; 1000 nM) was 54.4% and the normalised viability ([4]; 10000 nM) was 25.6%. It also gave a normalised viability ([5]; 3 nM) of 86.3%, a normalised viability ([5]; 30 nM) of 73.7% and a normalised viability ([5]; 100 nM) of 88.2%. It also gave a normalised viability ([6]; 3 nM) of 107%, a normalised viability ([6]; 30 nM) of 101% and a normalised viability ([6]; 100 nM) of 101%. For the same compound, the normalised viability ([7]; 3 nM) was 101%, the normalised viability ([7]; 30 nM) was 77.9% and the normalised viability ([7]; 100 nM) was 74.3%. It also gave a normalised viability ([8]; 10 nM) of 85%, a normalised viability ([8]; 1000 nM) of 29.5% and a normalised viability ([8]; 10000 nM) of 31.7%. The normalised viability ([9]; 10 nM) was 63%, the normalised viability ([9]; 1000 nM) was 21.4% and the normalised viability ([9]; 10000 nM) was 20%. For the same compound, the normalised viability ([10]; 10 nM) was 77%, the normalised viability ([10]; 1000 nM) was 11.4% and the normalised viability ([10]; 10000 nM) was 3.22%. For the same compound, the normalised viability ([11]; 10 nM) was 76.7%, the normalised viability ([11]; 1000 nM) was 38.2% and the normalised viability ([11]; 10000 nM) was 21.5%. The normalised viability ([12]; 3 nM) was 84.7%, the normalised viability ([12]; 30 nM) was 87.9% and the normalised viability ([12]; 100 nM) was 87.2%. It also gave a normalised viability ([13]; 10 nM) of 69%, a normalised viability ([13]; 1000 nM) of 47.1% and a normalised viability ([13]; 10000 nM) of 33.1%. The normalised viability ([14]; 10 nM) was 75.5%, the normalised viability ([14]; 1000 nM) was 9.72% and the normalised viability ([14]; 10000 nM) was 8.54%. For the same compound, the normalised viability ([15]; 3 nM) was 85.3%, the normalised viability ([15]; 30 nM) was 94.9% and the normalised viability ([15]; 100 nM) was 68.8%. It also gave a normalised viability ([16]; 10 nM) of 92.6%, a normalised viability ([16]; 1000 nM) of 36.1% and a normalised viability ([16]; 10000 nM) of 33.4%. For the same compound, the normalised viability ([17]; 10 nM) was 78.7%, the normalised viability ([17]; 1000 nM) was 30.3% and the normalised viability ([17]; 10000 nM) was 17.7%. The normalised viability ([18]; 3 nM) was 81.2%, the normalised viability ([18]; 30 nM) was 77.7% and the normalised viability ([18]; 100 nM) was 79.5%. For the same compound, the normalised viability [19] was 73.4%, the normalised viability [20] was 43.3% and the normalised viability [21] was 71.7%. The normalised viability [22] was 80.6%, the normalised viability [23] was 69% and the normalised viability [24] was 47.7%. For the same compound, the normalised viability [25] was 58.7%, the normalised viability [26] was 90.4% and the normalised viability [27] was 70.7%.
